We go through four compounds from patent US20170106027A1, “COMPOSITIONS AND METHODS OF IMPROVING PERFORMANCE AND INTESTINAL HEALTH OF POULTRY” (Kemin Industries, Inc., priority 2015, published 2017).

Values joined by “and” are separate entries in the source; they are usually repeats but may differ in a detail not shown here. Equal entries are not always repeated. Where two headings read alike, the source gives them in different places.

For data set [1], the system named is Eimeria tenella sporozoites. Briefly: In vitro MTT assay of Eimeria tenella sporozoite viability. (In general: Tetrazolium dyes change colour on reduction, which living cells bring about.)
In data set [2] the test system is E. acervulina. The data set is classed as in vivo, Cobb×Cobb 500 male broiler chicks. Particulars: scored d35, scale 0-4.
Data set [3] concerns E. maxima. The data set is classed as in vivo, Cobb×Cobb 500 male broiler chicks. The settings on record: scored d35, scale 0-4.
In data set [4] the test system is E. tenella. The data set is classed as in vivo, Cobb×Cobb 500 male broiler chicks. Particulars: scored d35, scale 0-4.
The test system of data set [5] is mixed Eimeria challenge (E. acervulina, E. maxima, E. tenella). Further details: species or system Cobb×Cobb 500 male broiler chicks. The settings on record: in vivo.
Data set [6] concerns E. acervulina. The data set is classed as in vivo, Cobb×Cobb 500 male broiler chicks. Particulars: feces d35.
The test system of data set [7] is E. maxima. The data set is classed as in vivo, Cobb×Cobb 500 male broiler chicks. Particulars: feces d35.
The subject of data set [8] is E. tenella. The data set is classed as in vivo, Cobb×Cobb 500 male broiler chicks. Particulars: feces d35.
Data set [9] has as its system C. perfringens. The data set is classed as in vivo, Cobb×Cobb 500 male broiler chicks.
The mark [10] stands for this setting: Treatments In (kept in basal diet d28-35).
The mark [11] stands for this setting: Treatments Out (removed from basal diet d28-35).

In the case of `O=C(OC[C@H]1O[C@@H](OC(=O)c2cc(O)c(O)c(OC(=O)c3cc(O)c(O)c(O)c3)c2)[C@H](OC(=O)c2cc(O)c(O)c(OC(=O)c3cc(O)c(O)c(O)c3)c2)[C@@H](OC(=O)c2cc(O)c(O)c(OC(=O)c3cc(O)c(O)c(O)c3)c2)[C@@H]1OC(=O)c1cc(O)c(O)c(OC(=O)c2cc(O)c(O)c(O)c2)c1)c1cc(O)c(O)c(OC(=O)c2cc(O)c(O)c(O)c2)c1` [tannic acid], the “additional decrease of sporozoite viability” value in data set [1] (100 ppm compared to 50 ppm) is recorded as 5%. In addition, the “sporozoite viability (in words)” value in data set [1] (MTT assay, 50 and 100 ppm, salinomycin 60 ppm positive control) is recorded as “reductions were greater”.
On to `CC[C@@H](C(=O)[C@@H](C)[C@@H](O)[C@H](C)[C@@H]1O[C@@H]([C@@H](CC)C(=O)O)CC[C@@H]1C)[C@H]1O[C@]2(C=C[C@@H](O)[C@]3(CC[C@@](C)([C@H]4CC[C@](O)(CC)[C@H](C)O4)O3)O2)[C@H](C)C[C@@H]1C` [BioCox ®, salinomycin], for which the “Average lesion score E. acervulina” value in data set [2] (setting [10]) is reported as 0.95; in [2] (setting [11]) it was 1.50. In addition, the “Average lesion score E. maxima” value stood at 0.60 in [3] (setting [10]) and 0.78 in [3] (setting [11]). In addition, the figures for the “Average lesion score E. tenella” value in [4] (setting [10]) and in [4] (setting [11]) were 1.05 and 1.00, respectively. Further, the “Average lesion score Overall” value in [5] is 0.87 and 1.09. In addition, the figures for the “Average oocysts per gram (OPG) in feces E. acervulina” value in data set [6] (Treatments In) and in data set [6] (Treatments Out) were 734 oocysts per gram and 19510 oocysts per gram, respectively. The results for the “Average oocysts per gram (OPG) in feces E. maxima” value in [7] (Treatments In) and in data set [7] (Treatments Out) were 67 oocysts per gram and 0 oocysts per gram, respectively. Besides, the “Average oocysts per gram (OPG) in feces E. tenella” value in data set [8] (Treatments In) worked out at 1167 oocysts per gram; in data set [8] (Treatments Out), 1668 oocysts per gram.
Turning to bacitracin methylene disalicylate [BMD], the “mortality due to necrotic enteritis (in words)” value in data set [9] (C. perfringens challenged birds) is reported as “reduced”. Further, the “FCR (in words)” value in [9] (C. perfringens challenged broilers) is reported as “improved FCR”. The “FCR (0-21 days)” value in data set [9] (challenged with C. perfringens d19, 20, 21, FCR adjusted for mortality) amounted to 1.904.
On to `N=C(N/N=C/c1ccc(Cl)cc1)N/N=C/c1ccc(Cl)cc1` [Robenz ®, Robenidine], for which the “Average lesion score E. acervulina” value in data set [2] (setting [10]) was determined as 0.45; in data set [2] (setting [11]), 1.38. In addition, the results for the “Average lesion score E. maxima” value in data set [3] (setting [10]) and in [3] (setting [11]) were 0.30 and 0.68, respectively. Moreover, the “Average lesion score E. tenella” value in data set [4] (setting [10]) was found to be 2.30; in data set [4] (setting [11]) it was 1.00. The “Average lesion score Overall” value in data set [5] stood at 1.02. Further, the entries for the “Average oocysts per gram (OPG) in feces E. acervulina” value in data set [6] (Treatments In) and in data set [6] (Treatments Out) were 1301 oocysts per gram and 4869 oocysts per gram, respectively. In addition, the “Average oocysts per gram (OPG) in feces E. maxima” value was determined as 0 oocysts per gram in data set [7] (Treatments In) and 600 oocysts per gram in data set [7] (Treatments Out). The “Average oocysts per gram (OPG) in feces E. tenella” value came out at 1034 oocysts per gram in data set [8] (Treatments In) and 3468 oocysts per gram in data set [8] (Treatments Out).
